These results are taken from ChEMBL document CHEMBL1138970, “Structure-activity relationships of [2',5'-bis-O-(tert-butyldimethylsilyl)-beta-D-ribofuranosyl]- 3'-spiro-5' '-(4' '-amino-1' ',2' '-oxathiole-2' ',2' '-dioxide)thymine derivatives as inhibitors of HIV-1 reverse transcriptase dimerization” (J Med Chem, 2006).

Data set [1] deals with T1, Human immunodeficiency virus type 1 reverse transcriptase (Human immunodeficiency virus 1, UniProt Q72547). The experiment in a line: Inhibition of FLAG-p66/HIS-p51-mediated HIV1 reverse transcriptase dimerization.
In data set [2] the target is T1, Human immunodeficiency virus type 1 reverse transcriptase. Nature of the data set: Inhibition of HIV1 reverse transcriptase RNA-dependent DNA polymerase activity.
The test system of data set [3] is Human immunodeficiency virus 1. The experiment in a line: Antiviral activity against HIV1 in MT4 cells. Format: functional, organism-based. The conditions noted are these: Human immunodeficiency virus 1, MT4.
Data set [4] is described as follows: Inhibition of MT4 cell viability. The format is cell-based. The conditions noted are these: human, MT4 cells.

For orientation: IC50 means the concentration at which inhibition is half-maximal. A higher IC50 goes with weaker potency. The EC50 is the concentration giving half of the maximal effect. High values mean lower potency in that assay, low ones higher potency in that assay. As usually defined, the CC50 is the concentration giving 50% cytotoxicity. For the compound `Cc1cn([C@@H]2O[C@H](CO[Si](C)(C)C(C)(C)C)[C@@H](O)[C@H]2O[Si](C)(C)C(C)(C)C)c(=O)n(CC(=O)O)c1=O`, the IC50 in data set [1] and in data set [2] was 6.6 µM each time. In data set [3], this compound registered an EC50 of 5350 nM. For the same compound, it took 19 µM to reach half-maximal cytotoxicity in data set [4] (CC50).

As to `Cc1cn([C@@H]2O[C@H](CO[Si](C)(C)C(C)(C)C)[C@@]3(OS(=O)(=O)C=C3N)[C@H]2O[Si](C)(C)C(C)(C)C)c(=O)n(CC2CO2)c1=O` (stereo partly specified), the IC50 in data set [1] was 5 µM; in data set [2], 2.4 µM. This compound also registered an EC50 in data set [3] of 110 nM. The compound also came in with a CC50 in data set [4] of 56 µM.

Take `COC(=O)C(=O)NC1=CS(=O)(=O)O[C@@]12[C@@H](COCc1ccccc1)O[C@@H](n1cc(C)c(=O)n(C)c1=O)[C@@H]2O[Si](C)(C)C(C)(C)C`: the IC50 in data set [1] came out at 7.2 µM; in data set [2], 5.4 µM. This compound returned an EC50 in data set [3] of 4500 nM. The CC50 in data set [4] amounted to 4 µM.

Regarding `CNC(=O)CCCCn1c(=O)c(C)cn([C@@H]2O[C@H](CO[Si](C)(C)C(C)(C)C)[C@@]3(OS(=O)(=O)C=C3N)[C@H]2O[Si](C)(C)C(C)(C)C)c1=O`, the figures for the IC50 in data set [1] and in data set [2] were 6.8 µM and 3.2 µM, respectively. Besides, the concentration giving a half-maximal response (EC50) in data set [3] is 50 nM. The same compound came in with a CC50 in data set [4] of more than 250 µM.

Take `Cc1cn([C@@H]2O[C@H](CO[Si](C)(C)C(C)(C)C)[C@@]3(OS(=O)(=O)C=C3N)[C@H]2O[Si](C)(C)C(C)(C)C)c(=O)n(CCCO)c1=O`: the IC50 in data set [1] is 1.6 µM; in data set [2], 0.7 µM. This compound also returned an EC50 in data set [3] of 30 nM. In data set [4], this compound came in with a CC50 of 4 µM.

As to `Cc1cn([C@@H]2O[C@H](CO[Si](C)(C)C(C)(C)C)[C@@]3(OS(=O)(=O)C=C3N)[C@H]2O[Si](C)(C)C(C)(C)C)c(=O)n(CCCN)c1=O`, the IC50 worked out at 7.2 µM in data set [1] and 4.4 µM in data set [2]. This compound came in with a 50% effective concentration (EC50) in data set [3] of 520 nM. This compound also registered a CC50 in data set [4] of 14 µM.

As to `Cc1cn([C@@H]2O[C@H](CO[Si](C)(C)C(C)(C)C)[C@@]3(OS(=O)(=O)C(/C=C/CO)=C3N)[C@H]2O[Si](C)(C)C(C)(C)C)c(=O)[nH]c1=O`, the IC50 was determined as 16 µM in data set [1] and 4.8 µM in data set [2]. In data set [3], this compound had an EC50 of 6630 nM. For the same compound, in data set [4], the CC50 is 17 µM.

Take `Cc1cn([C@@H]2O[C@H](CO[Si](C)(C)C(C)(C)C)[C@@]3(OS(=O)(=O)C(I)=C3N)[C@H]2O[Si](C)(C)C(C)(C)C)c(=O)[nH]c1=O`: the IC50 worked out at 3.5 µM in data set [1] and 8 µM in data set [2]. This compound also returned an EC50 in data set [3] of 120 nM. In data set [4], half-maximal cytotoxicity (CC50) was put at 4 µM.

Consider `CCCn1c(=O)c(C)cn([C@@H]2O[C@H](CO[Si](C)(C)C(C)(C)C)[C@@]3(OS(=O)(=O)C=C3N)[C@H]2O[Si](C)(C)C(C)(C)C)c1=O`, for which the results for the IC50 in data set [1] and in data set [2] were 4.3 µM and 0.5 µM, respectively. In data set [3], this compound returned an EC50 of 260 nM. The same compound showed a CC50 in data set [4] of 75 µM.

Take `CCc1cn([C@@H]2O[C@H](CO[Si](C)(C)C(C)(C)C)[C@@]3(OS(=O)(=O)C=C3N)[C@H]2O[Si](C)(C)C(C)(C)C)c(=O)[nH]c1=O`: the IC50 in data set [1] amounted to 8.5 µM; in data set [2] it was 3.4 µM. In data set [3], the EC50 is 60 nM. For the same compound, in data set [4], half-maximal cytotoxicity (CC50) was put at 20 µM.

On to `Cc1cn([C@@H]2O[C@H](CO[Si](C)(C)C(C)(C)C)[C@@]3(OS(=O)(=O)C=C3N)[C@H]2O[Si](C)(C)C(C)(C)C)c(=O)n(/C=C\CO)c1=O`, for which the IC50 in data set [1] amounted to 3.1 µM; in data set [2] it was 1.6 µM. In addition, the 50% effective concentration (EC50) in data set [3] was found to be 320 nM. This compound also registered a CC50 in data set [4] of 36 µM.

On to `Cc1cn([C@@H]2O[C@H](CO[Si](C)(C)C(C)(C)C)[C@@]3(OS(=O)(=O)C=C3N)[C@H]2O[Si](C)(C)C(C)(C)C)c(=O)n(CC(=O)N[C@@H](CC(=O)O)C(=O)O)c1=O`, for which the IC50 in data set [1] is 11.9 µM; in data set [2], 9.1 µM. In data set [3], this compound gave an EC50 of 6290 nM. The compound further gave a CC50 in data set [4] of more than 250 µM.

In the case of `CN(C)C(=O)c1cnnn1[C@@H]1O[C@H](CO[Si](C)(C)C(C)(C)C)[C@@]2(OS(=O)(=O)C=C2N)[C@H]1O[Si](C)(C)C(C)(C)C`, the IC50 in data set [1] was found to be 11.7 µM; in data set [2] it was 6.4 µM. In data set [3], the concentration for a half-maximal effect (EC50) was found to be 40 nM. Moreover, in data set [4], the CC50 amounted to 12 µM.

Regarding `Cc1cn(C2OC(CO[Si](C)(C)C(C)(C)C)CC2O[Si](C)(C)C(C)(C)C)c(=O)n(CC(=O)O)c1=O` (stereo unspecified), the 50% inhibitory concentration (IC50) in data set [1] stood at 1.1 µM; in data set [2], 5.7 µM. Further, the EC50 in data set [3] was determined as 6390 nM. In addition, it took 17 µM to reach half-maximal cytotoxicity in data set [4] (CC50).

`CC(C)(C)[Si](C)(C)OC[C@H]1O[C@@H](n2nncc2C(N)=O)[C@H](O[Si](C)(C)C(C)(C)C)[C@]12OS(=O)(=O)C=C2N`: the IC50 turned out to be 10.1 µM in data set [1] and 8.4 µM in data set [2]. The EC50 in data set [3] was 520 nM. The compound also had a CC50 in data set [4] of 15 µM.

For the compound `Cc1cn([C@@H]2O[C@H](CO[Si](C)(C)C(C)(C)C)[C@@]3(OS(=O)(=O)C=C3N)[C@H]2O[Si](C)(C)C(C)(C)C)c(=O)n(/C=C/CO)c1=O`, the IC50 was 1.9 µM in data set [1] and 0.5 µM in data set [2]. It took 40 nM to reach a half-maximal effect in data set [3] (EC50). In data set [4], this compound gave a half-maximal cytotoxic concentration (CC50) of 4 µM.

Turning to `Cc1cn([C@@H]2O[C@H](CO[Si](C)(C)C(C)(C)C)[C@@]3(OS(=O)(=O)C=C3N)[C@H]2O[Si](C)(C)C(C)(C)C)c(=O)n(CCc2ccccc2)c1=O`, the results for the IC50 in data set [1] and in data set [2] were 3 µM and 0.8 µM, respectively. Moreover, in data set [3], the EC50 worked out at 840 nM. This compound also displayed a CC50 in data set [4] of 2 µM.

As for `Cc1cn([C@@H]2O[C@H](CO[Si](C)(C)C(C)(C)C)[C@@]3(OS(=O)(=O)C=C3N=C(N)N)[C@H]2O[Si](C)(C)C(C)(C)C)c(=O)[nH]c1=O`, the IC50 in data set [1] was 14 µM; in data set [2] it was 3.8 µM. Also, the EC50 in data set [3] turned out to be 960 nM. The compound also gave a CC50 in data set [4] of 87 µM.

In the case of `Cc1cn([C@@H]2O[C@H](CO[Si](C)(C)C(C)(C)C)[C@@]3(OS(=O)(=O)C=C3N)[C@H]2O[Si](C)(C)C(C)(C)C)c(=O)n(CC(=O)N[C@@H](C)C(=O)O)c1=O`, the IC50 was 12 µM in data set [1] and 3.1 µM in data set [2]. Further, a half-maximal effect in data set [3] (EC50) was put at 5700 nM. In data set [4], this compound had a CC50 of more than 250 µM.

Regarding `Cc1cn([C@@H]2O[C@H](CO[Si](C)(C)C(C)(C)C)[C@@]3(OS(=O)(=O)C=C3N)[C@H]2O[Si](C)(C)C(C)(C)C)c(=O)n(C)c1=O`, the figures for the IC50 in data set [1] and in data set [2] were 5.7 µM and 1.3 µM, respectively. For the same compound, it took 60 nM to reach a half-maximal effect in data set [3] (EC50). In data set [4], this compound came in with a CC50 of 240 µM.

Turning to `Cc1cn([C@@H]2O[C@H](CO[Si](C)(C)C(C)(C)C)[C@@]3(OS(=O)(=O)C=C3N)[C@H]2O[Si](C)(C)C(C)(C)C)c(=O)n(CC(N)=O)c1=O`, the IC50 in data set [1] was 7 µM; in data set [2], 1.7 µM. In data set [3], this compound yielded an EC50 of 70 nM. The compound also displayed a CC50 in data set [4] of 18 µM.

On to `Cc1cn([C@@H]2O[C@H](CO[Si](C)(C)C(C)(C)C)[C@@]3(OS(=O)(=O)C=C3N)[C@H]2O[Si](C)(C)C(C)(C)C)c(=O)[nH]c1=O`, for which the half-inhibitory concentration (IC50) in data set [1] amounted to 6.7 µM; in data set [2], 1 µM. In data set [3], this compound had an EC50 of 60 nM. For the same compound, the midpoint of cytotoxicity in data set [4], the CC50, lay at 14 µM.

With `Cc1cn([C@@H]2O[C@H](CO[Si](C)(C)C(C)(C)C)[C@@]3(OS(=O)(=O)C=C3N)[C@H]2O[Si](C)(C)C(C)(C)C)c(=O)n(CC(=O)O)c1=O`, the IC50 in data set [1] is 5.5 µM; in data set [2] it was 3.2 µM. In addition, the EC50 in data set [3] is 6220 nM. The compound also yielded a CC50 in data set [4] of more than 155 µM.

As for `Cc1cn([C@@H]2O[C@H](CO[Si](C)(C)C(C)(C)C)[C@@]3(OS(=O)(=O)C=C3N)[C@H]2O[Si](C)(C)C(C)(C)C)c(=O)n(CCCN(CC(=O)O)CC(=O)O)c1=O`, the IC50 was found to be 5.2 µM in data set [1] and 10.6 µM in data set [2]. Besides, the EC50 in data set [3] was 8320 nM. The same compound gave a CC50 in data set [4] of 123 µM.
